Measured values as given in article PMC7069095, “A cell-permeable peptide-based PROTAC against the oncoprotein CREPT proficiently inhibits pancreatic cancer” (Theranostics, 2020).
Non-standard residues stand in square brackets, D forms with d. Residues, ends and D or L forms follow the SMILES beside them. No end group written: not given here. *: point of attachment. FITC = O=C1OC2(c3ccc(O)cc3Oc3cc(O)ccc32)c2ccc(NC(=S)*)cc21; Hyp = O=C(O)[C@@H]1C[C@@H](O)CN1; Cbz = O=C(OCc1ccccc1)*; Ahx = NCCCCCC(=O)O

Key:
[1] = system: Panc-1 cells; experiment: Confocal fluorescence imaging of FITC labeled peptides in cells; assay type: cell-based; details: confocal microscope, 10 μM FITC labeled peptides, Panc-1 cells
Experimental: To examine whether PRTC could permeate into pancreatic cancer cells, we synthesized fluorescein isothiocyanate (FITC) labeled PRTC, PRTC-m, PRTC-v, PRTC-r (PRTC without RRRRK) as well as TAT (a widely used cell penetrating peptide, as a positive control).
Figure 3 Identification of the permeability of PRTC in Panc-1 cells. (A) Entry of FITC- labeled peptides into Panc-1 cells tested by flow cytometry. FITC-TAT is the positive control. Measurements were performed in triplicate. (B) Quantification of cellular uptake of Panc-1 cells treated with different concentrations of FITC-PRTC. (C) Confocal microscope images of Panc-1 cells treated with 10 μM FITC labeled peptides. Scale bars, 10 μm. (D) Confocal microscope images of Panc-1 cells treated with different dosages of FITC-PRTC. Scale bars, 10 μm.

[2] = biological target: T1, endogenous CREPT protein in Panc-1 cells (Homo sapiens, UniProt Q9NQG5); experiment: Western blot of endogenous CREPT (degradation); assay type: cell-based; details: 24 h incubation with 10 μM PRTC
T1 construct: endogenous protein level of CREPT in Panc-1, AsPc-1 and MIA-PaCa-2 cells; endogenous in cells; host or cells: Panc-1, AsPc-1, MIA PaCa-2
T1 sequence (Q9NQG5 1-326): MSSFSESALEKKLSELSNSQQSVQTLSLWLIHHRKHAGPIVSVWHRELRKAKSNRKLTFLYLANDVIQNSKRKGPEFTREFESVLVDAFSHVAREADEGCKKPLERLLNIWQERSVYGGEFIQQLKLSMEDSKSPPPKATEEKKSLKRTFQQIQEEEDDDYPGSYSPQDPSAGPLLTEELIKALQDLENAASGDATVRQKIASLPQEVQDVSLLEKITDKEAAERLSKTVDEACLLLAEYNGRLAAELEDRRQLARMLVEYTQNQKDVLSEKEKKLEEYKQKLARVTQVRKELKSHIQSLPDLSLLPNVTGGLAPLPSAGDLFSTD
Experimental: (§1) For exogenous immunoprecipitation assays, HEK293T cells were plated in 60 mm dishes and then transfected with the indicated plasmids. After 24 h, cells were harvested using RIPA buffer (50 mM Tris-HCl pH 8.0, 2 mM EDTA pH 8.0, 150 mM NaCl, 1% NP-40, 0.5% sodium deoxycholate, 0.1% SDS) with mixed protease inhibitors. Cell lysates were incubated with 2 μg of the indicated antibodies and 30 μL of protein A/G-Sepharose beads at 4 °C overnight. Beads were eluted five times with lysis buffer (50 mM Tris-HCl pH 7.6, 1 mM EDTA pH 8.0, 165 mM NaCl, 0.5% NP-40), and thereafter, a western blot assay was performed to analyze the association by using the indicated antibodies. Western blot was performed as previously reported. Anti-β-actin and anti-Flag antibodies were purchased from Sigma. Anti-Myc antibody was purchased from Santa Cruz Biotechnology. Antibody against CREPT was produced in the laboratory.
To address whether PRTC could induce CREPT degradation, we examined the endogenous protein level of CREPT in Panc-1, AsPc-1 and MIA-PaCa-2 cells in the presence of different dosages of PRTC. […] Consistently, treatment with PRTC led to decreases in CREPT protein at different times (Figure 5B, S3A). […] To further visualize the degradation process, we stained the endogenous CREPT protein with an antibody against CREPT in the cells treated with FITC-labeled PRTC.
Figure 5 PRTC induces the ubiquitination and proteasome- dependent degradation of the endogenous CREPT protein. (A) Immunoblot of CREPT following 24 h incubation with different dosages of PRTC or PRTC-m in Panc-1 cells. (B) Immunoblot of CREPT exposed to 10 μM PRTC or PRTC-m for different times in Panc-1 cells. (C) Western blot analysis of CREPT following 24 h incubation with 10 μM PTRC in Panc-1 cells. MG132 is an inhibitor of proteasome activity. (D) Immunofluorescence visualization of Panc-1 cells after treatment with PRTC for 24 h. Cells were stained with anti-CREPT antibody. Scale bars, 20 μm.

[3] = system: Myc-CREPT and Myc-CCT; experiment: Exogenous IP experiment in HEK293T cells; assay type: binding; details: GST-tagged CREPT ligand
Experimental: as §1

[4] = biological target: T2, Flag-CREPT (Homo sapiens, UniProt Q9NQG5); experiment: GST pull-down; assay type: binding; details: GST-tagged proteins purified from mammalian (HEK293T) cells
T2 construct: expressed in transfected cells; host or cells: HEK293T
T2 sequence (Q9NQG5 1-326): T1 sequence (Q9NQG5 1-326)
Experimental: HEK293T cells were plated in 100 mm dishes and then transfected with the indicated plasmids. After 24 h, cells were harvested using RIPA buffer with mixed protease inhibitors. Cell lysates were incubated with 30 μL of GST-tagged Sepharose beads and 10 μg of purified proteins from either E. coli or HEK293T cells at 4 °C overnight. Beads were eluted five times with lysis buffer. Western blot was performed using an antibody against GST (Cell Signaling Technology) to analyze the association.

Row | localization of FITC labeled peptides in the cells [1] | Compound | other results
1 | very weak localization | CC[C@H](C)[C@H](NC(=O)CCCCCNC(=S)Nc1ccc2c(c1)C(=O)OC21c2ccc(O)cc2Oc2cc(O)ccc21)C(=O)N[C@@H](Cc1ccc(O)cc1)C(=O)N1C[C@H](O)C[C@H]1C(=O)N[C@@H](C)C(=O)N[C@@H](CC(C)C)C(=O)NCCCCCC(=O)N[C@@H](CCCCN)C(=O)N[C@@H](CC(=O)O)C(=O)N[C@H](C(=O)N[C@@H](CC(C)C)C(=O)N[C@@H](CO)C(=O)N[C@@H](CCC(=O)O)C(=O)N[C@@H](CCCCN)C(=O)N[C@@H](CCC(=O)O)C(=O)N[C@@H](CCCCN)C(=O)N[C@@H](CCCCN)C(=O)N[C@@H](CC(C)C)C(=O)N[C@@H](CCC(=O)O)C(=O)N[C@@H](CCC(=O)O)C(=O)N[C@@H](Cc1ccc(O)cc1)C(=O)N[C@@H](CCCCN)C(=O)N[C@@H](CCC(N)=O)C(=O)N[C@@H](CCCCN)C(=O)N[C@@H](CC(C)C)C(=O)N[C@@H](C)C(=O)N[C@@H](CCCNC(=N)N)C(=O)N[C@H](C(=O)O)C(C)C)C(C)C [FITC-PRTC-r] ({FITC-Ahx}-IY[Hyp]AL[Ahx]KDVLSEKEKKLEEYKQKLARV-OH) | 
2 |  | CC(C)C[C@@H](C=O)NC(=O)[C@H](CC(C)C)NC(=O)[C@H](CC(C)C)NC(=O)OCc1ccccc1 [MG132, reference compound] (Cbz-Leu-Leu-Leu-aldehyde) | effect on PRTC-induced CREPT degradation [2]: completely abolished
3 | strong localization | FITC-AHX-IYP (OH) AL-AHX-KDVPSEKEKKPEEYKQKPARV-RRRRK [FITC-PRTC-m, FITC labeled PRTC-m] | 
4 | strong localization | FITC-AHX-KDVLSEKEKKLEEYKQKLARV-RRRRK [FITC-PRTC-v, FITC labeled PRTC-v] | 
5 |  | GST-CL-m: GST protein tagged with CL-m (KDVPSEKEKKPEEYKQKPARV; also: GST tag, end not given here) | binding in exogenous IP [3]: failed to bind; pull down of Flag-CREPT in vitro [4]: lost the ability to associate
